Values quoted from earlier work as cited in patent US11622994B2, “Therapy for vitiligo” (Clinuvel Pharmaceuticals Limited, priority 2008, dated 2023).

Columns and labels:
[1] = tested on: cultured human keratinocytes; conditions: versus native alpha-MSH
[2] = tested on: frog skin; conditions: frog skin bioassay; versus native alpha-MSH
[3] = tested on: human volunteers

Substance: Nle^4-D-Phe^7-alpha-MSH
- potency relative to the native hormone at inducing pigmentation [1]: 10 to 1,000 fold
- potency relative to the native hormone at inducing pigmentation [2]: 10 to 1,000 fold
- melanin synthesis [3]: can induce melanin synthesis
